From PubChem BioAssay AID1845208 (Molecular Pharmacology Branch, DTP, NCI, 2023)

System: NCI-H196 SCLC complex tumor spheroid viability
Test: Anticancer human tumor NCI-H196 cell line growth inhibition;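 note: spheroids exposed to compounds for 7 days before readout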;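 for viability, T/C: 100% = DMSO vehicle control wells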
Conditions: for IC50: curve of first compound; for viability, T/C: stronger effect = lower value
In short: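 Complex tumor spheroids combined malignant cells with endothelial cells and mesenchymal stem cells. DNA-damaging drugs and DNA repair inhibitors were tested alone and in combination, at half-log dilutions down from clinical Cmax (top 10 microM if Cmax unknown), 0.25% DMSO final.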

SMILES: CC(C)n1c(=O)n(C)c2cnc3cc(F)c(-c4ccc(OCCCN5CCCCC5)nc4)cc3c21 + Cn1nnc2c(C(N)=O)ncn2c1=O
- IC50 (second compound 1 µM): > 10 µM
- IC50 (second compound 3.16 µM): > 10 µM
- IC50 (second compound 10 µM): > 10 µM
- IC50 (second compound 31.6 µM): > 10 µM
- IC50 (second compound 100 µM): > 10 µM
- viability, T/C (second compound 1 µM, first compound 0.0316 µM): 93.1%
- viability, T/C (second compound 1 µM, first compound 0.1 µM): 102%
- viability, T/C (second compound 1 µM, first compound 0.316 µM): 91.8%
- viability, T/C (second compound 1 µM, first compound 1 µM): 99.7%
- viability, T/C (second compound 1 µM, first compound 3.16 µM): 101%
- viability, T/C (second compound 1 µM, first compound 10 µM): 93.6%
- viability, T/C (second compound 3.16 µM, first compound 0.0316 µM): 94.3%
- viability, T/C (second compound 3.16 µM, first compound 0.1 µM): 102%
- viability, T/C (second compound 3.16 µM, first compound 0.316 µM): 101%
- viability, T/C (second compound 3.16 µM, first compound 1 µM): 119%
- viability, T/C (second compound 3.16 µM, first compound 3.16 µM): 100%
- viability, T/C (second compound 3.16 µM, first compound 10 µM): 94.2%
- viability, T/C (second compound 10 µM, first compound 0.0316 µM): 90.8%
- viability, T/C (second compound 10 µM, first compound 0.1 µM): 97.7%
- viability, T/C (second compound 10 µM, first compound 0.316 µM): 98.4%
- viability, T/C (second compound 10 µM, first compound 1 µM): 106%
- viability, T/C (second compound 10 µM, first compound 3.16 µM): 106%
- viability, T/C (second compound 10 µM, first compound 10 µM): 95%
- viability, T/C (second compound 31.6 µM, first compound 0.0316 µM): 103%
- viability, T/C (second compound 31.6 µM, first compound 0.1 µM): 103%
- viability, T/C (second compound 31.6 µM, first compound 0.316 µM): 101%
- viability, T/C (second compound 31.6 µM, first compound 1 µM): 104%
- viability, T/C (second compound 31.6 µM, first compound 3.16 µM): 116%
- viability, T/C (second compound 31.6 µM, first compound 10 µM): 90.8%
- viability, T/C (second compound 100 µM, first compound 0.0316 µM): 103%
- viability, T/C (second compound 100 µM, first compound 0.1 µM): 96.2%
- viability, T/C (second compound 100 µM, first compound 0.316 µM): 98.3%
- viability, T/C (second compound 100 µM, first compound 1 µM): 100%
- viability, T/C (second compound 100 µM, first compound 3.16 µM): 95.8%
- viability, T/C (second compound 100 µM, first compound 10 µM): 82.1%
